# In ChEMBL document CHEMBL2150933 (J Med Chem, 2012):
# Calls of active or inactive are those of the source. No cut-off for these calls is given here.
# Key:
# [1] = tested on: SK-MEL-2; assay: Antitumor activity against human SK-MEL-2 cells xenografted in athymic nu/nu Harlan mouse assessed as tumor growth inhibition at 8 mg/kg, ip administered Q4D for 3 days relative to control; format: functional, organism-based; design: dose 8 mg/kg
# [2] = tested on: CAKI-1; assay: Cytotoxicity against human Caki1 cells after 48 hrs by SRB assay; format: functional; conditions: CAKI-1, 48 h
# [3] = tested on: ACHN; assay: Cytotoxicity against human ACHN cells after 48 hrs by SRB assay; format: functional
# [4] = tested on: OVCAR-4; assay: Cytotoxicity against human OVCAR4 cells after 48 hrs by SRB assay; format: functional; conditions: OVCAR-4, 48 h
# [5] = tested on: RPMI-8226; assay: Cytotoxicity against human RPMI8226 cells after 48 hrs by SRB assay; format: functional; conditions: RPMI-8226, 48 h
# [6] = tested on: SR; assay: Cytotoxicity against human SR cells after 48 hrs by SRB assay; format: functional
# [7] = tested on: COLO 205; assay: Cytotoxicity against human COLO205 cells after 48 hrs by SRB assay; format: functional; conditions: COLO 205, 48 h, read-out: pGI50 (converted)
# [8] = tested on: BT-549; assay: Cytotoxicity against human BT549 cells after 48 hrs by SRB assay; format: functional; conditions: BT-549, 48 h
# [9] = tested on: LOX IMVI; assay: Cytotoxicity against human LOXIMVI cells after 48 hrs by SRB assay; format: functional
# [10] = tested on: UACC-257; assay: Cytotoxicity against human UACC257 cells after 48 hrs by SRB assay; format: functional; conditions: UACC-257, 48 h
# [11] = tested on: MOLT-4; assay: Cytotoxicity against human MOLT4 cells after 48 hrs by SRB assay; format: functional; conditions: MOLT-4, 48 h
# [12] = tested on: SK-MEL-28; assay: Cytotoxicity against human SK-MEL-28 cells after 48 hrs by SRB assay; format: functional; conditions: SK-MEL-28, 48 h
# [13] = tested on: SNB-19; assay: Cytotoxicity against human SNB19 cells after 48 hrs by SRB assay; format: functional; conditions: SNB-19, 48 h
# [14] = tested on: HCC 2998; assay: Cytotoxicity against human HCC2998 cells after 48 hrs by SRB assay; format: functional; conditions: HCC 2998, 48 h
# [15] = tested on: HL-60; assay: Cytotoxicity against human HL60 cells after 48 hrs by SRB assay; format: functional; conditions: HL-60, 48 h
# [16] = tested on: Malme-3M; assay: Cytotoxicity against human MALME-3M cells after 48 hrs by SRB assay; format: functional
# [17] = tested on: NCI-H226; assay: Cytotoxicity against human NCI-H226 cells after 48 hrs by SRB assay; format: functional; conditions: NCI-H226, 48 h
# [18] = tested on: MDA-MB-468; assay: Cytotoxicity against human MDA-MB-468 cells after 48 hrs by SRB assay; format: functional; conditions: MDA-MB-468, 48 h
# [19] = tested on: OVCAR-8; assay: Cytotoxicity against human OVCAR8 cells after 48 hrs by SRB assay; format: functional; conditions: OVCAR-8, 48 h, read-out: pGI50 (converted)
# [20] = tested on: UO-31; assay: Cytotoxicity against human UO31 cells after 48 hrs by SRB assay; format: functional; conditions: UO-31, 48 h
# [21] = tested on: TK-10; assay: Cytotoxicity against human TK10 cells after 48 hrs by SRB assay; format: functional; conditions: TK-10, 48 h
# [22] = tested on: SK-MEL-2; assay: Cytotoxicity against human SK-MEL-2 cells after 48 hrs by SRB assay; format: functional; conditions: SK-MEL-2, 48 h
# [23] = tested on: MDA-MB-435; assay: Cytotoxicity against human MDA-MB-435 cells after 48 hrs by SRB assay; format: functional; conditions: MDA-MB-435, 48 h
# [24] = tested on: HCT-116; assay: Cytotoxicity against human HCT116 cells after 48 hrs by SRB assay; format: functional; conditions: HCT-116, 48 h
# [25] = tested on: SF-539; assay: Cytotoxicity against human SF539 cells after 48 hrs by SRB assay; format: functional; conditions: SF-539, 48 h
# [26] = tested on: UACC-62; assay: Cytotoxicity against human UACC62 cells after 48 hrs by SRB assay; format: functional; conditions: UACC-62, 48 h
# [27] = tested on: NCI-H460; assay: Cytotoxicity against human NCI-H460 cells after 48 hrs by SRB assay; format: functional; conditions: NCI-H460, 48 h
# [28] = tested on: NCI-H23; assay: Cytotoxicity against human NCI-H23 cells after 48 hrs by SRB assay; format: functional; conditions: NCI-H23, 48 h
# [29] = tested on: PC-3; assay: Cytotoxicity against human PC3 cells after 48 hrs by SRB assay; format: functional; conditions: PC-3, 48 h
# [30] = tested on: MCF7; assay: Cytotoxicity against human MCF7 cells after 48 hrs by SRB assay; format: functional; conditions: MCF7, 48 h
# [31] = tested on: SW-620; assay: Cytotoxicity against human SW620 cells after 48 hrs by SRB assay; format: functional; conditions: SW-620, 48 h
# [32] = Cytotoxicity against human NCI-ADR-RES cells after 48 hrs by SRB assay; format: functional
# [33] = tested on: HOP-92; assay: Cytotoxicity against human HOP92 cells after 48 hrs by SRB assay; format: functional; conditions: HOP-92, 48 h
# [34] = tested on: K562; assay: Cytotoxicity against human K562 cells after 48 hrs by SRB assay; format: functional; conditions: K562, 48 h
# [35] = tested on: DU-145; assay: Cytotoxicity against human DU145 cells after 48 hrs by SRB assay; format: functional; conditions: DU-145, 48 h
# [36] = tested on: M14; assay: Cytotoxicity against human M14 cells after 48 hrs by SRB assay; format: functional; conditions: M14, 48 h
# [37] = tested on: SNB-75; assay: Cytotoxicity against human SNB75 cells after 48 hrs by SRB assay; format: functional; conditions: SNB-75, 48 h
# [38] = tested on: HCT-15; assay: Cytotoxicity against human HCT15 cells after 48 hrs by SRB assay; format: functional; conditions: HCT-15, 48 h
# [39] = tested on: CCRF-CEM; assay: Cytotoxicity against human CCRF-CEM cells after 48 hrs by SRB assay; format: functional
# [40] = tested on: T47D; assay: Cytotoxicity against human T47D cells after 48 hrs by SRB assay; format: functional
# [41] = tested on: SK-MEL-5; assay: Cytotoxicity against human SK-MEL-5 cells after 48 hrs by SRB assay; format: functional; conditions: SK-MEL-5, 48 h, read-out: pGI50 (converted)
# [42] = tested on: HOP-62; assay: Cytotoxicity against human HOP62 cells after 48 hrs by SRB assay; format: functional; conditions: HOP-62, 48 h
# [43] = tested on: MDA-MB-231; assay: Cytotoxicity against human MDA-MB-231 cells after 48 hrs by SRB assay; format: functional; conditions: MDA-MB-231, 48 h, read-out: pGI50 (converted)
# [44] = tested on: U-251; assay: Cytotoxicity against human U251 cells after 48 hrs by SRB assay; format: functional; conditions: U-251, 48 h, read-out: pGI50 (converted)
# [45] = tested on: SN12C; assay: Cytotoxicity against human SN12C cells after 48 hrs by SRB assay; format: functional
# [46] = tested on: SF-295; assay: Cytotoxicity against human SF295 cells after 48 hrs by SRB assay; format: functional; conditions: SF-295, 48 h, read-out: pGI50 (converted)
# [47] = tested on: IGROV-1; assay: Cytotoxicity against human IGROV1 cells after 48 hrs by SRB assay; format: functional; conditions: IGROV-1, 48 h, read-out: pGI50 (converted)
# [48] = tested on: HT-29; assay: Cytotoxicity against human HT-29 cells after 48 hrs by SRB assay; format: functional; conditions: HT-29, 48 h
# [49] = tested on: OVCAR-3; assay: Cytotoxicity against human OVCAR3 cells after 48 hrs by SRB assay; format: functional; conditions: OVCAR-3, 48 h
# [50] = tested on: OVCAR-5; assay: Cytotoxicity against human OVCAR5 cells after 48 hrs by SRB assay; format: functional; conditions: OVCAR-5, 48 h
# [51] = tested on: RXF 393; assay: Cytotoxicity against human RXF393 cells after 48 hrs by SRB assay; format: functional; conditions: RXF 393, 48 h
# [52] = tested on: A498; assay: Cytotoxicity against human A498 cells after 48 hrs by SRB assay; format: functional; conditions: A498, 48 h
# [53] = tested on: KM12; assay: Cytotoxicity against human KM12 cells after 48 hrs by SRB assay; format: functional; conditions: KM12, 48 h
# [54] = tested on: SF-268; assay: Cytotoxicity against human SF268 cells after 48 hrs by SRB assay; format: functional; conditions: SF-268, 48 h
# [55] = Cytotoxicity against human 786-O cells after 48 hrs by SRB assay; format: functional; conditions: 786-0, 48 h
# [56] = tested on: SK-OV-3; assay: Cytotoxicity against human SKOV3 cells after 48 hrs by SRB assay; format: functional; conditions: SK-OV-3, 48 h
# [57] = tested on: NCI-H522; assay: Cytotoxicity against human NCI-H522 cells after 48 hrs by SRB assay; format: functional; conditions: NCI-H522, 48 h
# [58] = tested on: A549; assay: Cytotoxicity against human A549 cells after 48 hrs by SRB assay; format: functional; conditions: A549, 48 h, read-out: pGI50 (converted)
# [59] = tested on: Hs-578T; assay: Cytotoxicity against human Hs578T cells after 48 hrs by SRB assay; format: functional
# [60] = tested on: EKVX; assay: Cytotoxicity against human EKVX cells after 48 hrs by SRB assay; format: functional
compound,measurement,setting,value
COc1cccc2c1C(=O)c1c(O)c3c(c(O)c1C2=O)C[C@@](O)(C(=O)CO)C[C@@H]3O[C@H]1C[C@H](N)[C@H](O)[C@H](C)O1,TGI,[1],Active
CO[C@H](C(=O)[C@@H](O)[C@@H](C)O)[C@@H]1Cc2cc3cc(O[C@H]4C[C@@H](O[C@H]5C[C@@H](O)[C@H](O)[C@@H](C)O5)[C@H](O)[C@@H](C)O4)c(C)c(O)c3c(O)c2C(=O)[C@H]1O[C@H]1C[C@@H](O[C@H]2C[C@@H](O[C@H]3C[C@H](O)[C@H](O)[C@@H](C)O3)[C@H](O)[C@@H](C)O2)[C@H](O)[C@@H](C)O1,GI50,[2],229 nM
same,GI50,[3],155 nM
same,GI50,[4],209 nM
same,GI50,[5],11.8 nM
same,GI50,[6],14.1 nM
same,GI50,[7],49 nM
same,GI50,[8],17 nM
same,GI50,[9],20.4 nM
same,GI50,[10],69.2 nM
same,GI50,[11],47.9 nM
same,GI50,[12],27.5 nM
same,GI50,[13],43.6 nM
same,GI50,[14],61.7 nM
same,GI50,[15],53.7 nM
same,GI50,[16],24 nM
same,GI50,[17],45.7 nM
same,GI50,[18],50.1 nM
same,GI50,[19],53.7 nM
same,GI50,[20],166 nM
same,GI50,[21],129 nM
same,GI50,[22],33.9 nM
same,GI50,[23],42.7 nM
same,GI50,[24],19.5 nM
same,GI50,[25],33.1 nM
same,GI50,[26],12.3 nM
same,GI50,[27],21.4 nM
same,GI50,[28],41.7 nM
same,GI50,[29],100 nM
same,GI50,[30],12.9 nM
same,GI50,[31],29.5 nM
same,GI50,[32],7760 nM
same,GI50,[33],30.2 nM
same,GI50,[34],24.6 nM
same,GI50,[35],91.2 nM
same,GI50,[36],100 nM
same,GI50,[37],30.2 nM
same,GI50,[38],1050 nM
same,GI50,[39],28.2 nM
same,GI50,[40],44.7 nM
same,GI50,[41],27.5 nM
same,GI50,[42],56.2 nM
same,GI50,[43],132 nM
same,GI50,[44],23.4 nM
same,GI50,[45],35.5 nM
same,GI50,[46],39.8 nM
same,GI50,[47],75.9 nM
same,GI50,[48],75.9 nM
same,GI50,[49],69.2 nM
same,GI50,[50],79.4 nM
same,GI50,[51],25.7 nM
same,GI50,[52],32.4 nM
same,GI50,[53],29.5 nM
same,GI50,[54],30.9 nM
same,GI50,[55],61.7 nM
same,GI50,[56],102 nM
same,GI50,[57],14.1 nM
same,GI50,[58],41.7 nM
same,GI50,[59],28.2 nM
same,GI50,[60],135 nM
